Laboratory results reported in US20200383985A1, “Inhibitors of Protease Activated Receptor-2” (Endosome Therapeutics, Inc., priority 2017, published 2020).

Tested on: mouse DRG neurons
Test: Patch clamp rheobase of DRG neurons: IBS-D biopsy supernatant-induced hyperexcitability
Format: cell-based
Settings: I-343 10 μM, Dy4 30 μM, PD98059 50 μM
Description: An investigation as whether proteases from mucosal biopsies of IBS patients cause a persistent hyperexcitability of nociceptors was conducted by a mechanism that entails endosomal signaling of PAR2. Biopsies of colonic mucosa from patients with diarrhea-predominant IBS (IBS-D) or healthy control (HC) subjects were placed in culture medium (24 h, 37° C.). Mouse DRG neurons were then exposed to biopsy supernatants (30 min, 37° C.) and washed. Rheobase was measured 30 min after washing to assess persistent hyperexcitability. Supernatants of biopsies from IBS-D patients caused a persistent decrease in rheobase, consistent with hyperexcitability, when compared to supernatants from HC subjects (rheobase at 30 min: HC, 78.33±4.41 pA, 12 neurons, supernatant from 4 HC; IBS-D, 54.55±4.74 pA, 11 neurons, supernatant from 4 IBS-D; P<0.05; ANOVA, Tukey's multiple comparisons test) (FIG. 6A, B). I-343 (10 μM), Dy4 (dynamin inhibitor, 30 μM) and PD98059 (MEK1 inhibitor, 50 μM) abolished IBS-D-induced hyperexcitability of nociceptors (FIG. 6A-D).
The Queen's University Human Ethics Committee approved human studies. All subjects gave informed consent. Endoscopic biopsies were obtained from the descending colon of 13 adult IBS-D patients (12 female) diagnosed using ROME III criteria for diarrhea predominant IBS and of 12 health controls. All IBS patients had symptoms greater than 1 year and most were greater than 5 years. Celiac disease was excluded by blood test and patients over 40 years with daily diarrhea were biopsied at the time of colonoscopy to exclude microscopic colitis. […] Biopsies (8 samples per patient) were incubated in 250 μl of RPMI medium containing 10% fetal calf serum, penicillin/streptomycin and gentamicin/amphotericin B (95% O2/5% […], 24 h, 37° C.). Supernatants were stored at −80° C. Supernatants from 4-6 patients were pooled and studied in individual experiments.
DRG innervating the colon (T9-T13) were collected from C57BL/6 mice. Ganglia were digested by incubation in collagenase IV (1 mg/ml, Worthington) and dispase (4 mg/ml, Roche) (10 min, 37° C.). DRG were triturated with a fire-polished Pasteur pipette, and further digested (5 min, 37° C.). Neurons were washed, plated onto laminin- (0.017 mg/ml) and poly-D-lysine- (2 mg/ml) coated glass coverslips, and were maintained in F12 medium containing 10% fetal calf serum, penicillin and streptomycin (95% air, 5% CO2, 16 h, 37° C.) until retrieval for electrophysiological studies.
Small-diameter (<30 pF capacitance) neurons were studied because they display characteristics of nociceptors (Valdez-Morales E. E. et al., Am J Gastroenterol 2013, 108(10): 1634-1643). Changes in excitability were quantified by measuring rheobase. Whole-cell perforated patch-clamp recordings were made using Amphotericin B (240 μg/ml, Sigma Aldrich) in current clamp mode at room temperature. The recording chamber was perfused with external solution at 2 ml/min. Recordings were made using Multiclamp 700B or Axopatch 200B amplifiers, digitized by Digidata 1440A or 1322A, and processed using pClamp 10.1 software (Molecular Devices). Solutions had the composition (mM): pipette—K-gluconate 110, KC130, HEPES 10, MgCl2 1, CaCl2 2; pH 7.25 with 1 M KOH; external—NaCl 140, KCl 5 HEPES 10, glucose 10, MgCl2 1, CaCl2 2; pH to 7.3-7.4 with 3 M NaOH. […] Neurons were also preincubated with trypsin (50 nM, 10 min), NE (390 nM, 30 min), CS (500 nM, 60 min), or vehicle (37° C.), and washed. Rheobase was measured at T 0 or T 30 min after washing. To investigate mechanisms of protease-evoked effects, neurons were incubated with I-343 (100 nM, 300 nM, 10 μM, 30 min preincubation), SCH79797 (1 μM, 10 min), Dy4 (30 μM, 30 min), PS2 (15 μM, 30 min), PD98059 (50 μM, 30 min), GF109203X (10 μM, 30 min), or vehicle (preincubation and inclusion throughout). In experiments using the tripartite antagonist, neurons were preincubated with Compound 10 (30 μM, 60 min, 37° C.) or vehicle and washed. […]

Structure (SMILES) | IBS-D-induced hyperexcitability of nociceptors | rheobase of neurons exposed to HC supernatant
O=C(N/N=C/c1cc(O)c(O)cc1O)c1cc2ccccc2cc1O [Dy4] | abolished | non-significant decrease
Cc1nc(C(=O)N2CCN(C(=O)c3cn4nc(-c5ccc(F)cc5)cc(C(C)(C)C)c4n3)C(C)(C)C2)n[nH]1 [Compound I-343, (8-(tert-butyl)-6-(4-fluorophenyl)imidazo[1,2-b]pyridazin-2-yl)(2,2-dimethyl-4-(5-methyl-1H-1,2,4-triazole-3-carbonyl)piperazin-1-yl)methanone] | abolished | no effect
